The values below come from US20250235543A1, “MODIFIED PROTEINS AND PROTEIN DEGRADERS” (Cullgen (Shanghai), Inc., priority 2021, published 2025).

SMILES strings stand for the structures.

For experiment [1], the system named is cyclin D1. Briefly: Cyclin D1 percentage degradation in Calu-1 cells (immunoblotting). It is filed as cell-based. As to conditions: 10 μM, 16 hours. A digest of the protocol: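 Cells were rinsed once in cold PBS and lysed in cold RIPA buffer containing protease and phosphatase inhibitors, with gentle agitation at 4° C. for 30 min. Lysates were spun at 13,000 rpm for 10 min at 4° C., protein was measured by BCA, and samples were boiled in Laemmli buffer at 99° C. for 5 min before SDS-PAGE immunoblotting.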
A general note: Immunoblotting shows a protein as a band on a membrane.

The target of experiment [2] is T1, CDK4 (Homo sapiens, UniProt P11802).
T1 construct: endogenous in cells; host or cells: Calu-1
Nature of the experiment: CDK4 percentage degradation in Calu-1 cells (immunoblotting). It is filed as cell-based. The following applies: Calu-1 cells, 10 μM, 16 hours; read-out: CDK4 Degradation (10 μM). A digest of the protocol:
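Cultured cells were rinsed once in cold PBS and lysed in cold RIPA buffer containing protease and phosphatase inhibitors, with gentle agitation at 4° C. for 30 min. Lysates were centrifuged at 13,000 rpm for 10 min at 4° C., and protein was quantified by BCA. Samples were then separated by SDS-PAGE, detected with ECL, and the CDK4 bands quantified in Image Lab.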

T1 sequence (P11802 2-303 limits assumed): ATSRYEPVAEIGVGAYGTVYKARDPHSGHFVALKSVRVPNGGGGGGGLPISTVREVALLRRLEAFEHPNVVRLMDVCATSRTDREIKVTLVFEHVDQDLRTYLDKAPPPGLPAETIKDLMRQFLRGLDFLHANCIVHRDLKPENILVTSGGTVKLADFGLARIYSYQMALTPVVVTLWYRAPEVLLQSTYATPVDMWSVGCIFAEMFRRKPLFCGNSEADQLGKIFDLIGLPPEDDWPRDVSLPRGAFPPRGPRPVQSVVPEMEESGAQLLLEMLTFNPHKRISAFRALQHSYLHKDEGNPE
T1 sequence (P24385 whole entry partner): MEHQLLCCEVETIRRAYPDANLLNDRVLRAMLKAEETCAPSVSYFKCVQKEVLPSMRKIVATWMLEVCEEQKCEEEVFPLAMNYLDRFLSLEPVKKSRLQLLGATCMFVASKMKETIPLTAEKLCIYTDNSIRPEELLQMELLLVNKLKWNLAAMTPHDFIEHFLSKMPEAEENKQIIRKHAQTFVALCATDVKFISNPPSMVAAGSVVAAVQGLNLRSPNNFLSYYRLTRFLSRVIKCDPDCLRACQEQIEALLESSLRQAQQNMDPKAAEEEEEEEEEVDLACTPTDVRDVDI
T1 sequence (Q16531 2-1140 limits assumed, further chain): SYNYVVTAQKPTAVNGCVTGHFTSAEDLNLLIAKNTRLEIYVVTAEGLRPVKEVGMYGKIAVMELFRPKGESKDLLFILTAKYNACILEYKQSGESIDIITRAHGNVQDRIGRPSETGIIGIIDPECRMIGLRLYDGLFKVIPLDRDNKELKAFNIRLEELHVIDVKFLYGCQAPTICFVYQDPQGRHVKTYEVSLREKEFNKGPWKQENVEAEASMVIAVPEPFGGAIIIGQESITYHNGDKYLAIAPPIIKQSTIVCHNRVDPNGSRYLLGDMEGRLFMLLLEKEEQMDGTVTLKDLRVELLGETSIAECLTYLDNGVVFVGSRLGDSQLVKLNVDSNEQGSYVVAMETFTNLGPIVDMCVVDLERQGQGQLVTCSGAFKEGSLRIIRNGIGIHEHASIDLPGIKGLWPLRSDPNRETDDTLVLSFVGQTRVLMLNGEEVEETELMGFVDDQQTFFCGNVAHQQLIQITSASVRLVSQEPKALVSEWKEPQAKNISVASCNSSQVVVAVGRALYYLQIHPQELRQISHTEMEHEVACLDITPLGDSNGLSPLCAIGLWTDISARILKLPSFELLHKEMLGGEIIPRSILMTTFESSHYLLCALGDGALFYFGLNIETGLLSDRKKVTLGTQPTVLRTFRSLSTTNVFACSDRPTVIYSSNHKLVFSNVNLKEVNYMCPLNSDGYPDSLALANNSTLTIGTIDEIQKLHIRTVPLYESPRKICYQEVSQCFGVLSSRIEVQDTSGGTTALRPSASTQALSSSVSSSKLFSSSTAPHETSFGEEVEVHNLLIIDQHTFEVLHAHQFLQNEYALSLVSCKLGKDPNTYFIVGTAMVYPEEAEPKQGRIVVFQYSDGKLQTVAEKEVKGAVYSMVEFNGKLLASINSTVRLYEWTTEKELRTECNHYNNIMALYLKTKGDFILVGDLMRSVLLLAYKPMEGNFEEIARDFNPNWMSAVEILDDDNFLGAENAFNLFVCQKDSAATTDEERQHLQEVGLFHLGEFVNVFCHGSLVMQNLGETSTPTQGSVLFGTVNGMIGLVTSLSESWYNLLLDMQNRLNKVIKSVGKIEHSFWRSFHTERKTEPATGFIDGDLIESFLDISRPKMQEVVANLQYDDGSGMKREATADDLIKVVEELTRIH

Turning to `Cc1nc(NC(=O)c2ccccc2NC(=O)CCCCCCCNC(=O)CN2CCN(c3ccc(Nc4ncc(F)c(-c5cc(F)c6nc(C)n(C(C)C)c6c5)n4)nc3)CC2)sc1C` [CPD-306, N-(4,5-Dimethylthiazol-2-yl)-2-(8-(2-(4-(6-((5-fluoro-4-(4-fluoro-1-isopropyl-2-methyl-1H-benzo[d]imidazol-6-yl)pyrimidin-2-yl)amino)pyridin-3-yl)piperazin-1-yl)acetamido)octanamido)benzamide], the “CyclinD1 Degradation (10 μM)” value in experiment [1] was “D (protein percentage degradation < 30%)”. Besides, the inhibition at 10 µM in experiment [2] was below 30%.
For `Cc1nc(NC(=O)c2ccccc2NC(=O)CCCCCCCCNC(=O)CN2CCN(c3ccc(Nc4ncc(F)c(-c5cc(F)c6nc(C)n(C(C)C)c6c5)n4)nc3)CC2)sc1C` [CPD-307, N-(4,5-Dimethylthiazol-2-yl)-2-(9-(2-(4-(6-((5-fluoro-4-(4-fluoro-1-isopropyl-2-methyl-1H-benzo[d]imidazol-6-yl)pyrimidin-2-yl)amino)pyridin-3-yl)piperazin-1-yl)acetamido)nonanamido)benzamide] the same measures were “D (protein percentage degradation < 30%)” and below 30%.
Consider `Cc1nc(NC(=O)c2ccccc2NC(=O)CCOCCNC(=O)CN2CCN(c3ccc(Nc4ncc(F)c(-c5cc(F)c6nc(C)n(C(C)C)c6c5)n4)nc3)CC2)sc1C` [CPD-308, N-(4,5-Dimethylthiazol-2-yl)-2-(3-(2-(2-(4-(6-((5-fluoro-4-(4-fluoro-1-isopropyl-2-methyl-1H-benzo[d]imidazol-6-yl)pyrimidin-2-yl)amino)pyridin-3-yl)piperazin-1-yl)acetamido)ethoxy)propanamido)benzamide], for which the “CyclinD1 Degradation (10 μM)” value in experiment [1] was “B (protein percentage degradation < 80%, and >= 50%)”. In addition, the inhibition at 10 µM in experiment [2] was below 30%.
As to `Cc1nc(NC(=O)c2ccccc2NC(=O)CCOCCOCCNC(=O)CN2CCN(c3ccc(Nc4ncc(F)c(-c5cc(F)c6nc(C)n(C(C)C)c6c5)n4)nc3)CC2)sc1C` [CPD-309, N-(4,5-Dimethylthiazol-2-yl)-2-(3-(2-(2-(2-(4-(6-((5-fluoro-4-(4-fluoro-1-isopropyl-2-methyl-1H-benzo[d]imidazol-6-yl)pyrimidin-2-yl)amino)pyridin-3-yl)piperazin-1-yl)acetamido)ethoxy)ethoxy)propanamido)benzamide], in experiment [1], the “CyclinD1 Degradation (10 μM)” value is reported as “D (protein percentage degradation < 30%)”. In addition, in experiment [2], the inhibition at 10 µM fell in the range of 30 to 50%.
`Cc1nc(NC(=O)c2ccccc2NC(=O)CCOCCOCCOCCNC(=O)CN2CCN(c3ccc(Nc4ncc(F)c(-c5cc(F)c6nc(C)n(C(C)C)c6c5)n4)nc3)CC2)sc1C` [CPD-310, N-(4,5-Dimethylthiazol-2-yl)-2-(1-(4-(6-((5-fluoro-4-(4-fluoro-1-isopropyl-2-methyl-1H-benzo[d]imidazol-6-yl)pyrimidin-2-yl)amino)pyridin-3-yl)piperazin-1-yl)-2-oxo-6,9,12-trioxa-3-azapentadecan-15-amido)benzamide]: the “CyclinD1 Degradation (10 μM)” value in experiment [1] was “A (protein percentage degradation >= 80%)”. For the same compound, the inhibition at 10 µM in experiment [2] was below 30%.
`Cc1nc(NC(=O)c2ccccc2NC(=O)CCOCCOCCOCCOCCNC(=O)CN2CCN(c3ccc(Nc4ncc(F)c(-c5cc(F)c6nc(C)n(C(C)C)c6c5)n4)nc3)CC2)sc1C` [CPD-311, N-(4,5-Dimethylthiazol-2-yl)-2-(1-(4-(6-((5-fluoro-4-(4-fluoro-1-isopropyl-2-methyl-1H-benzo[d]imidazol-6-yl)pyrimidin-2-yl)amino)pyridin-3-yl)piperazin-1-yl)-2-oxo-6,9,12,15-tetraoxa-3-azaoctadecan-18-amido)benzamide]: the “CyclinD1 Degradation (10 μM)” value in experiment [1] is given as “A (protein percentage degradation >= 80%)”. Besides, the inhibition at 10 µM in experiment [2] was 30 to 50%.
Take `Cc1nc(NC(=O)c2ccccc2NC(=O)CCOCCOCCOCCOCCOCCNC(=O)CN2CCN(c3ccc(Nc4ncc(F)c(-c5cc(F)c6nc(C)n(C(C)C)c6c5)n4)nc3)CC2)sc1C` [CPD-312, N-(4,5-Dimethylthiazol-2-yl)-2-(1-(4-(6-((5-fluoro-4-(4-fluoro-1-isopropyl-2-methyl-1H-benzo[d]imidazol-6-yl)pyrimidin-2-yl)amino)pyridin-3-yl)piperazin-1-yl)-2-oxo-6,9,12,15,18-pentaoxa-3-azahenicosan-21-amido)benzamide]: the “CyclinD1 Degradation (10 μM)” value in experiment [1] is “A (protein percentage degradation >= 80%)”. Besides, in experiment [2], the inhibition at 10 µM was below 30%.
In the case of `Cc1nc(NC(=O)c2ccccc2NC(=O)CCOCCOCCOCCOCCOCCOCCNC(=O)CN2CCN(c3ccc(Nc4ncc(F)c(-c5cc(F)c6nc(C)n(C(C)C)c6c5)n4)nc3)CC2)sc1C` [CPD-313, N-(4,5-Dimethylthiazol-2-yl)-2-(1-(4-(6-((5-fluoro-4-(4-fluoro-1-isopropyl-2-methyl-1H-benzo[d]imidazol-6-yl)pyrimidin-2-yl)amino)pyridin-3-yl)piperazin-1-yl)-2-oxo-6,9,12,15,18,21-hexaoxa-3-azatetracosan-24-amido)benzamide], the “CyclinD1 Degradation (10 μM)” value in experiment [1] is recorded as “A (protein percentage degradation >= 80%)”. For the same compound, the inhibition at 10 µM in experiment [2] was below 30%.
For `Cc1nc(NC(=O)c2ccccc2NC(=O)CNC(=O)CN2CCN(c3ccc(Nc4ncc5cc6n(c5n4)C4(CCCCC4)CNC6=O)nc3)CC2)sc1C` [CPD-314, N-(4,5-Dimethylthiazol-2-yl)-2-(2-(2-(4-(6-((6′-oxo-7′,8′-dihydro-6′H-spiro[cyclohexane-1,9′-pyrazino[1′,2′:1,5]pyrrolo[2,3-d]pyrimidin]-2′-yl)amino)pyridin-3-yl)piperazin-1-yl)acetamido)acetamido)benzamide], the “CyclinD1 Degradation (10 μM)” value in experiment [1] is listed as “D (protein percentage degradation < 30%)”. The inhibition at 10 µM in experiment [2] is below 30%.
As to `Cc1nc(NC(=O)c2ccccc2NC(=O)CCNC(=O)CN2CCN(c3ccc(Nc4ncc5cc6n(c5n4)C4(CCCCC4)CNC6=O)nc3)CC2)sc1C` [CPD-315, N-(4,5-Dimethylthiazol-2-yl)-2-(3-(2-(4-(6-((6′-oxo-7′,8′-dihydro-6′H-spiro[cyclohexane-1,9′-pyrazino[1′,2′:1,5]pyrrolo[2,3-d]pyrimidin]-2′-yl)amino)pyridin-3-yl)piperazin-1-yl)acetamido)propanamido)benzamide], the “CyclinD1 Degradation (10 μM)” value in experiment [1] is listed as “D (protein percentage degradation < 30%)”. The inhibition at 10 µM in experiment [2] is below 30%.
Consider `Cc1nc(NC(=O)c2ccccc2NC(=O)CCCNC(=O)CN2CCN(c3ccc(Nc4ncc5cc6n(c5n4)C4(CCCCC4)CNC6=O)nc3)CC2)sc1C` [CPD-316, N-(4,5-Dimethylthiazol-2-yl)-2-(4-(2-(4-(6-((6′-oxo-7′,8′-dihydro-6′H-spiro[cyclohexane-1,9′-pyrazino[1′,2′:1,5]pyrrolo[2,3-d]pyrimidin]-2′-yl)amino)pyridin-3-yl)piperazin-1-yl)acetamido)butanamido)benzamide], for which the “CyclinD1 Degradation (10 μM)” value in experiment [1] was “D (protein percentage degradation < 30%)”. Besides, the inhibition at 10 µM in experiment [2] is below 30%.
In the case of `Cc1nc(NC(=O)c2ccccc2NC(=O)CCCCNC(=O)CN2CCN(c3ccc(Nc4ncc5cc6n(c5n4)C4(CCCCC4)CNC6=O)nc3)CC2)sc1C` [CPD-317, N-(4,5-Dimethylthiazol-2-yl)-2-(5-(2-(4-(6-((6′-oxo-7′,8′-dihydro-6′H-spiro[cyclohexane-1,9′-pyrazino[1′,2′:1,5]pyrrolo[2,3-d]pyrimidin]-2′-yl)amino)pyridin-3-yl)piperazin-1-yl)acetamido)pentanamido)benzamide], in experiment [1], the “CyclinD1 Degradation (10 μM)” value is recorded as “A (protein percentage degradation >= 80%)”. In addition, in experiment [2], the inhibition at 10 µM was 50 to 80%.
`Cc1nc(NC(=O)c2ccccc2NC(=O)CCCCCNC(=O)CN2CCN(c3ccc(Nc4ncc5cc6n(c5n4)C4(CCCCC4)CNC6=O)nc3)CC2)sc1C` [CPD-318, N-(4,5-Dimethylthiazol-2-yl)-2-(6-(2-(4-(6-((6′-oxo-7′,8′-dihydro-6′H-spiro[cyclohexane-1,9′-pyrazino[1′,2′:1,5]pyrrolo[2,3-d]pyrimidin]-2′-yl)amino)pyridin-3-yl)piperazin-1-yl)acetamido)hexanamido)benzamide]: in experiment [1], the “CyclinD1 Degradation (10 μM)” value was “D (protein percentage degradation < 30%)”. For the same compound, the inhibition at 10 µM in experiment [2] was in the range of 30 to 50%.
Regarding `Cc1nc(NC(=O)c2ccccc2NC(=O)CCCCCCNC(=O)CN2CCN(c3ccc(Nc4ncc5cc6n(c5n4)C4(CCCCC4)CNC6=O)nc3)CC2)sc1C` [CPD-319, N-(4,5-Dimethylthiazol-2-yl)-2-(7-(2-(4-(6-((6′-oxo-7′,8′-dihydro-6′H-spiro[cyclohexane-1,9′-pyrazino[1′,2′:1,5]pyrrolo[2,3-d]pyrimidin]-2′-yl)amino)pyridin-3-yl)piperazin-1-yl)acetamido)heptanamido)benzamide], the “CyclinD1 Degradation (10 μM)” value in experiment [1] is recorded as “A (protein percentage degradation >= 80%)”. For the same compound, the inhibition at 10 µM in experiment [2] is 50 to 80%.
The matching figures for `Cc1nc(NC(=O)c2ccccc2NC(=O)CCCCCCCNC(=O)CN2CCN(c3ccc(Nc4ncc5cc6n(c5n4)C4(CCCCC4)CNC6=O)nc3)CC2)sc1C` [CPD-320, N-(4,5-Dimethylthiazol-2-yl)-2-(8-(2-(4-(6-((6′-oxo-7′,8′-dihydro-6′H-spiro[cyclohexane-1,9′-pyrazino[1′,2′:1,5]pyrrolo[2,3-d]pyrimidin]-2′-yl)amino)pyridin-3-yl)piperazin-1-yl)acetamido)octanamido)benzamide]: “A (protein percentage degradation >= 80%)” and 50 to 80%.
